According to patent US20240270762A1, “PENICILLIN-BINDING PROTEIN INHIBITORS” (priority 2021, published 2024):
In brackets after ≈: the same amount, converted by molar mass.

What was measured:
N. gonorrhoeae MS11 = assay: Liquid broth MIC in Fastidious broth; conditions: Neisseria gonorrhoeae, MS11, read-out: Minimum Inhibitory Concentration (MIC), N. gonorrhoeae MS11
N. gonorrhoeae WHO Z = assay: Liquid broth MIC in Fastidious broth; conditions: Neisseria gonorrhoeae, read-out: Minimum Inhibitory Concentration (MIC), N. gonorrhoeae WHO Z
K. pneumoniae UMM = assay: microbe, parasite or virus in culture; format: cell-based; conditions: Klebsiella pneumoniae, read-out: MIC K. pneumoniae UMM
N. gonorrhoeae WHO X = assay: Liquid broth MIC in Fastidious broth; conditions: Neisseria gonorrhoeae, read-out: Minimum Inhibitory Concentration (MIC), N. gonorrhoeae WHO X
N. gonorrhoeae WHO M = assay: Liquid broth MIC in Fastidious broth; conditions: Neisseria gonorrhoeae, read-out: Minimum Inhibitory Concentration (MIC), N. gonorrhoeae WHO M
K. pneumoniae 848844 = assay: microbe, parasite or virus in culture; format: cell-based; conditions: Klebsiella pneumoniae, 848844, read-out: MIC K. pneumoniae 848844
N. gonorrhoeae WHO K = assay: Liquid broth MIC in Fastidious broth; conditions: Neisseria gonorrhoeae, read-out: Minimum Inhibitory Concentration (MIC), N. gonorrhoeae WHO K
Procedure: Liquid broth-based assays were used for antibacterial testing of PBP inhibitors in Neisseria gonorrhoeae. Briefly, cryo-preserved bacterial cultures of clinical strains were streaked for isolation on Chocolate Agar (72 g/L (2×) GC Agar Base (BD #228950) and 2% (2×) Hemoglobin was autoclaved at 121° C. for 20 minutes to sterilize. Once cooled to ˜50° C. the 2×GC Agar Base and 2× Hemoglobin solutions are combined and 1% IsoVitaleX Enrichment (BD #211876) was added to the solution). Strains were incubated at 36° C. and 5% CO2 to allow growth of colonies, 24 hours before inoculum preparation. 2-fold serial dilutions of test compounds were conducted in a 96 well plate with a final volume of 75 μL per well at 2-fold the final desired concentration in Fastidious broth (Remel #R07664). For preparation of assay inoculum, a direct suspension was prepared by aseptically swabbing 10-15 colonies from agar plates into culture tubes containing 2 mL of fresh sterile saline. After the dilution plates were set up, direct suspensions were then diluted in a cuvette containing sterile saline and the optical density was measured at 600 nm. Inocula were diluted such that 75 μL of this culture in Fastidious broth results in a starting bacterial concentration of 5×10^5 CFU/mL when added to the dilution plates. The plates were incubated for ˜24 hours at 36° C. and 5% CO2.

E. coli AG100 = assay: microbe, parasite or virus in culture; format: cell-based; conditions: Escherichia coli, AG100, read-out: MIC E. coli AG100
N. gonorrhoeae FA1090 = assay: Liquid broth MIC in Fastidious broth; conditions: Neisseria gonorrhoeae, FA1090, read-out: Minimum Inhibitory Concentration (MIC), N. gonorrhoeae FA 1090
E. coli D22 = assay: microbe, parasite or virus in culture; format: cell-based; conditions: Escherichia coli, D22, read-out: MIC E. coli D22
E. coli ATCC 25922 = assay: microbe, parasite or virus in culture; format: cell-based; conditions: Escherichia coli, ATCC25922, read-out: MIC E. coli 25922
K. pneumoniae SI-117 = assay: microbe, parasite or virus in culture; format: cell-based; conditions: Klebsiella pneumoniae, SI117, read-out: MIC K. pneumoniae SI-117
P. aeruginosa ATCC 27853 = assay: microbe, parasite or virus in culture; format: cell-based; conditions: Pseudomonas aeruginosa, ATCC27853, read-out: MIC P. aeruginosa ATCC 27853
A. baumannii ATCC 19606 = assay: microbe, parasite or virus in culture; format: cell-based; conditions: Acinetobacter baumannii, ATCC19606, read-out: MIC, A. baumannii ATCC 19606
[1] = tested on: P. aeruginosa (ΔmexAB-oprM); assay: Broth microdilution MIC in CAMHB; format: cell-based; conditions: Pseudomonas aeruginosa; read-out: MIC P. aeruginosa ΔmexAB-oprM
[2] = target: T1, PBP2 from Neisseria gonorrhoeae (FA19) (Neisseria gonorrhoeae, UniProt P08149); assay: Bocillin-FL fluorescence polarization competition binding, N. gonorrhoeae PBP2; conditions: fluorescence polarization competition binding assay using Bocillin-FL, read-out: N. gonorrhoeae PBP2 Potency
T1 construct: made in house
Procedure, shortened: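 Fluorescence polarization competition with 0.1 μM Bocillin-FL (fluorescent penicillin V) against 0.25 μM N. gonorrhoeae FA19 PBP2 in 50 mM Hepes pH 8.0, 300 mM NaCl, 10% glycerol. Boronic acid inhibitors were preincubated with PBP, then Bocillin-FL was added and FP read (490/520 nm) up to 60 min. EC50 is the concentration halving PBP-bound Bocillin-FL.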

P. aeruginosa ATCC 35151 = assay: microbe, parasite or virus in culture; format: cell-based; conditions: Pseudomonas aeruginosa, ATCC35151, read-out: MIC P. aeruginosa ATCC 35151
E. coli 901C = assay: microbe, parasite or virus in culture; format: cell-based; conditions: Escherichia coli, read-out: MIC E. coli 901C

T1 sequence (P08149 whole entry): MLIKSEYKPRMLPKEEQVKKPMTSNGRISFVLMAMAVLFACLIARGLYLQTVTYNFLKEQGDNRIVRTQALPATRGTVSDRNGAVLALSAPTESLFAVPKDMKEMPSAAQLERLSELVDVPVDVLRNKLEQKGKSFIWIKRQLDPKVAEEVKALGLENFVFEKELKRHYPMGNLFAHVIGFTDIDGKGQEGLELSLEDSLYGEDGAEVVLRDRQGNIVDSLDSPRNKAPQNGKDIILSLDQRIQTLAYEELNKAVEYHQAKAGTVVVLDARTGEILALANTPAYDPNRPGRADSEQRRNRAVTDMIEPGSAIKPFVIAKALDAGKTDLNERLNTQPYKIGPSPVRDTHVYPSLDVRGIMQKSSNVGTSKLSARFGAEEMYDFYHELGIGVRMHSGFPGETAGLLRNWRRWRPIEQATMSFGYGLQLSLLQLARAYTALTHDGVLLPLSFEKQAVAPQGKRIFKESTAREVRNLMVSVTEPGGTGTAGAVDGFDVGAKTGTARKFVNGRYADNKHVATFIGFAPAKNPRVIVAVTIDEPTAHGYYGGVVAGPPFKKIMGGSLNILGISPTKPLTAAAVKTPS

O=C(O)c1cccc2c1OB(O)[C@@H](NC(=O)C(NC(=O)N1CCCC1=O)c1ccc(P(=O)(O)O)cc1)C2 (stereo partly drawn) [Example 57, (3R)-2-hydroxy-3-(2-(2-oxopyrrolidine-1-carboxamido)-2-(4-phosphonophenyl)acetamido)-3,4-dihydro-2H-benzo[e][1,2]oxaborinine-8-carboxylic acid]
MIC (N. gonorrhoeae MS11): < 1 µg/mL
MIC (N. gonorrhoeae WHO Z): 1 to 2 µg/mL (≈ 1.88 to 3.76 µM)
MIC (K. pneumoniae UMM): 32 to 64 µg/mL (≈ 60.2 to 120 µM)
MIC (N. gonorrhoeae WHO X): 4 to 8 µg/mL (≈ 7.53 to 15.1 µM)
MIC (N. gonorrhoeae WHO M): < 1 µg/mL
MIC (K. pneumoniae 848844): > 128 µg/mL
MIC (N. gonorrhoeae WHO K): 4 to 8 µg/mL (≈ 7.53 to 15.1 µM)
MIC (E. coli AG100): > 128 µg/mL
MIC (N. gonorrhoeae FA1090): < 1 µg/mL
MIC (E. coli D22): 8 to 16 µg/mL (≈ 15.1 to 30.1 µM)
MIC (E. coli ATCC 25922): > 128 µg/mL
MIC (K. pneumoniae SI-117): > 128 µg/mL
MIC (P. aeruginosa ATCC 27853): > 128 µg/mL
MIC (A. baumannii ATCC 19606): > 128 µg/mL
MIC [1]: > 128 µg/mL
EC50 [2]: < 10 µM
MIC (P. aeruginosa ATCC 35151): 2 to 4 µg/mL (≈ 3.76 to 7.53 µM)
MIC (E. coli 901C): < 1 µg/mL

CS(=O)(=O)N1CCC[C@H]1C(=O)N[C@H](C(=O)N[C@H]1Cc2cccc(C(=O)O)c2OB1O)c1ccc(P(=O)(O)O)cc1 [Example 43, (R)-2-hydroxy-3-((S)-2-((S)-1-(methylsulfonyl)pyrrolidine-2-carboxamido)-2-(4-phosphonophenyl)acetamido)-3,4-dihydro-2H-benzo[e][1,2]oxaborinine-8-carboxylic acid]
MIC (N. gonorrhoeae MS11): 4 to 8 µg/mL (≈ 6.72 to 13.4 µM)
MIC (N. gonorrhoeae WHO Z): 4 to 8 µg/mL (≈ 6.72 to 13.4 µM)
MIC (K. pneumoniae UMM): > 128 µg/mL
MIC (N. gonorrhoeae WHO X): 16 to 32 µg/mL (≈ 26.9 to 53.8 µM)
MIC (N. gonorrhoeae WHO M): 1 to 2 µg/mL (≈ 1.68 to 3.36 µM)
MIC (K. pneumoniae 848844): > 128 µg/mL
MIC (N. gonorrhoeae WHO K): 16 to 32 µg/mL (≈ 26.9 to 53.8 µM)
MIC (E. coli AG100): > 128 µg/mL
MIC (N. gonorrhoeae FA1090): 1 to 2 µg/mL (≈ 1.68 to 3.36 µM)
MIC (E. coli D22): 32 to 64 µg/mL (≈ 53.8 to 108 µM)
MIC (E. coli ATCC 25922): > 128 µg/mL
MIC (K. pneumoniae SI-117): > 128 µg/mL
MIC (P. aeruginosa ATCC 27853): > 128 µg/mL
MIC (A. baumannii ATCC 19606): > 128 µg/mL
MIC [1]: > 128 µg/mL
EC50 [2]: 50 to 250 µM
MIC (P. aeruginosa ATCC 35151): 8 to 16 µg/mL (≈ 13.4 to 26.9 µM)
MIC (E. coli 901C): 8 to 16 µg/mL (≈ 13.4 to 26.9 µM)

O=C(O)c1cccc2c1OB(O)[C@@H](NC(=O)C(NC(=O)C1CC1)c1ccc(P(=O)(O)O)cc1)C2 (stereo partly drawn) [Example 30, (3R)-3-(2-(cyclopropanecarboxamido)-2-(4-phosphonophenyl)acetamido)-2-hydroxy-3,4-dihydro-2H-benzo[e][1,2]oxaborinine-8-carboxylic acid]
MIC (N. gonorrhoeae MS11): 16 to 32 µg/mL (≈ 32.8 to 65.5 µM)
MIC (N. gonorrhoeae WHO Z): 16 to 32 µg/mL (≈ 32.8 to 65.5 µM)
MIC (K. pneumoniae UMM): > 128 µg/mL
MIC (N. gonorrhoeae WHO X): 16 to 32 µg/mL (≈ 32.8 to 65.5 µM)
MIC (N. gonorrhoeae WHO M): 4 to 8 µg/mL (≈ 8.19 to 16.4 µM)
MIC (K. pneumoniae 848844): > 128 µg/mL
MIC (N. gonorrhoeae WHO K): 16 to 32 µg/mL (≈ 32.8 to 65.5 µM)
MIC (E. coli AG100): > 128 µg/mL
MIC (N. gonorrhoeae FA1090): 4 to 8 µg/mL (≈ 8.19 to 16.4 µM)
MIC (E. coli D22): 8 to 16 µg/mL (≈ 16.4 to 32.8 µM)
MIC (E. coli ATCC 25922): > 128 µg/mL
MIC (K. pneumoniae SI-117): > 128 µg/mL
MIC (P. aeruginosa ATCC 27853): > 128 µg/mL
MIC (A. baumannii ATCC 19606): > 128 µg/mL
MIC [1]: > 128 µg/mL
EC50 [2]: < 10 µM
MIC (P. aeruginosa ATCC 35151): 8 to 16 µg/mL (≈ 16.4 to 32.8 µM)
MIC (E. coli 901C): 8 to 16 µg/mL (≈ 16.4 to 32.8 µM)

O=C(O)c1cccc2c1OB(O)[C@@H](NC(=O)[C@H](NC(=O)c1ccn[nH]c1=O)c1ccc(P(=O)(O)O)cc1)C2 (single isomer, unassigned) [Example 178]
MIC (N. gonorrhoeae MS11): < 1 µg/mL
MIC (N. gonorrhoeae WHO Z): < 1 µg/mL
MIC (K. pneumoniae UMM): 32 to 64 µg/mL (≈ 59 to 118 µM)
MIC (N. gonorrhoeae WHO X): 4 to 8 µg/mL (≈ 7.38 to 14.8 µM)
MIC (N. gonorrhoeae WHO M): < 1 µg/mL
MIC (K. pneumoniae 848844): > 128 µg/mL
MIC (N. gonorrhoeae WHO K): 1 to 2 µg/mL (≈ 1.84 to 3.69 µM)
MIC (E. coli AG100): > 128 µg/mL
MIC (N. gonorrhoeae FA1090): < 1 µg/mL
MIC (E. coli D22): 2 to 4 µg/mL (≈ 3.69 to 7.38 µM)
MIC (E. coli ATCC 25922): > 128 µg/mL
MIC (K. pneumoniae SI-117): > 128 µg/mL
MIC (P. aeruginosa ATCC 27853): 32 to 64 µg/mL (≈ 59 to 118 µM)
MIC (A. baumannii ATCC 19606): 32 to 64 µg/mL (≈ 59 to 118 µM)
MIC [1]: 8 to 16 µg/mL (≈ 14.8 to 29.5 µM)
EC50 [2]: < 10 µM
MIC (P. aeruginosa ATCC 35151): < 1 µg/mL
MIC (E. coli 901C): < 1 µg/mL
